Test results as given in PubChem BioAssay AID2060616 (Molecular Pharmacology Branch, DTP, NCI, 2025).
pIC50: −log10 of the molar value.

Test system: 377384-186-R-J1-PDC complex spheroid viability
Experiment: Anticancer human tumor 377384-186-R-J1-PDC patient-derived pancreatic carcinoma cell line growth inhibition [CLK]
Settings: for pIC50: curve of first compound; for viability, T/C: stronger effect = lower value
Procedure, shortened: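 Multi-cell-type spheroids combined patient-derived tumor cells with HUVEC endothelial cells and human mesenchymal stem cells. Paired agents were dosed in half-log steps down from about clinical Cmax, or from 10 microM where Cmax was unknown.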
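Also: spheroids exposed to agents for 7 days before reading.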
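For viability, T/C in this document: luminescence signal used as a stand-in for viable cells.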

Question: What does the source list for `C=CC(=O)Nc1cc(Nc2nccc(-c3cn(C)c4ccccc34)n2)c(OC)cc1N(C)CCN(C)C` + CNC(=O)c1ccc(Nc2nc(OC3CCCC3)c3c(-c4ccc5nc(C)oc5c4)c[nH]c3n2)c(OC)c1?
Answer: pIC50 (second compound 0.0316 µM): < 6.52; pIC50 (second compound 0.1 µM): 7.27; pIC50 (second compound 0.316 µM): > 9.02; pIC50 (second compound 1 µM): > 9.02; pIC50 (second compound 3.16 µM): > 9.02; pIC50 (second compound 10 µM): > 9.02; viability, T/C (second compound 0.0316 µM, first compound 0.000949 µM): 91.5%; viability, T/C (second compound 0.0316 µM, first compound 0.003 µM): 109%; viability, T/C (second compound 0.0316 µM, first compound 0.00949 µM): 99.2%; viability, T/C (second compound 0.0316 µM, first compound 0.03 µM): 103%; viability, T/C (second compound 0.0316 µM, first compound 0.0949 µM): 86.3%; viability, T/C (second compound 0.0316 µM, first compound 0.3 µM): 59%; viability, T/C (second compound 0.1 µM, first compound 0.000949 µM): 64.1%; viability, T/C (second compound 0.1 µM, first compound 0.003 µM): 63.5%; viability, T/C (second compound 0.1 µM, first compound 0.00949 µM): 55.7%; viability, T/C (second compound 0.1 µM, first compound 0.03 µM): 59.4%; viability, T/C (second compound 0.1 µM, first compound 0.0949 µM): 42.8%; viability, T/C (second compound 0.1 µM, first compound 0.3 µM): 29.7%; viability, T/C (second compound 0.316 µM, first compound 0.000949 µM): 20.6%; viability, T/C (second compound 0.316 µM, first compound 0.003 µM): 23.6%; viability, T/C (second compound 0.316 µM, first compound 0.00949 µM): 20.6%; viability, T/C (second compound 0.316 µM, first compound 0.03 µM): 17.2%; viability, T/C (second compound 0.316 µM, first compound 0.0949 µM): 17.3%; viability, T/C (second compound 0.316 µM, first compound 0.3 µM): 17%; viability, T/C (second compound 1 µM, first compound 0.000949 µM): 17.7%; viability, T/C (second compound 1 µM, first compound 0.003 µM): 18.1%; viability, T/C (second compound 1 µM, first compound 0.00949 µM): 21.8%; viability, T/C (second compound 1 µM, first compound 0.03 µM): 19.2%; viability, T/C (second compound 1 µM, first compound 0.0949 µM): 16.7%; viability, T/C (second compound 1 µM, first compound 0.3 µM): 16.7%; viability, T/C (second compound 3.16 µM, first compound 0.000949 µM): 20.1%; viability, T/C (second compound 3.16 µM, first compound 0.003 µM): 20.9%; viability, T/C (second compound 3.16 µM, first compound 0.00949 µM): 21.1%; viability, T/C (second compound 3.16 µM, first compound 0.03 µM): 19.5%; viability, T/C (second compound 3.16 µM, first compound 0.0949 µM): 17.9%; viability, T/C (second compound 3.16 µM, first compound 0.3 µM): 14.8%; viability, T/C (second compound 10 µM, first compound 0.000949 µM): 18.9%; viability, T/C (second compound 10 µM, first compound 0.003 µM): 21.2%; viability, T/C (second compound 10 µM, first compound 0.00949 µM): 18.1%; viability, T/C (second compound 10 µM, first compound 0.03 µM): 19.4%; viability, T/C (second compound 10 µM, first compound 0.0949 µM): 17.6%; viability, T/C (second compound 10 µM, first compound 0.3 µM): 15.3%

Question: How did the pIC50 (second compound 0.0316 µM) turn out when `Nc1ccn(C2OC(CO)C(O)C2(F)F)c(=O)n1` (centres undefined) + CN1CCN(c2cc(C(=O)Nc3cc4cc(-c5cnn(C)c5)ccc4cn3)ccn2)CC1 was run?
Answer: > 7.50

Question: And the pIC50 (second compound 0.1 µM)?
Answer: > 7.50

Question: What about the pIC50 (second compound 0.316 µM) of the same molecule?
Answer: > 7.50

Question: And the pIC50 (second compound 1 µM)?
Answer: > 7.50

Question: What about the pIC50 (second compound 3.16 µM) of the same molecule?
Answer: > 7.50

Question: What about the pIC50 (second compound 10 µM) of the same molecule?
Answer: > 7.50

Question: And the viability, T/C (second compound 0.0316 µM, first compound 0.0316 µM)?
Answer: 7.87%

Question: What about the viability, T/C (second compound 0.0316 µM, first compound 0.1 µM) of the same molecule?
Answer: 4.22%

Question: What about the viability, T/C (second compound 0.0316 µM, first compound 0.316 µM) of the same molecule?
Answer: 5.68%

Question: What about the viability, T/C (second compound 0.0316 µM, first compound 1 µM) of the same molecule?
Answer: 2.98%

Question: What about the viability, T/C (second compound 0.0316 µM, first compound 3.16 µM) of the same molecule?
Answer: 2.97%

Question: What about the viability, T/C (second compound 0.0316 µM, first compound 10 µM) of the same molecule?
Answer: 2.28%

Question: What about the viability, T/C (second compound 0.1 µM, first compound 0.0316 µM) of the same molecule?
Answer: 9.1%

Question: And the viability, T/C (second compound 0.1 µM, first compound 0.1 µM)?
Answer: 4.08%

Question: What about the viability, T/C (second compound 0.1 µM, first compound 0.316 µM) of the same molecule?
Answer: 3.35%

Question: And the viability, T/C (second compound 0.1 µM, first compound 1 µM)?
Answer: 3.48%

Question: And the viability, T/C (second compound 0.1 µM, first compound 3.16 µM)?
Answer: 2.39%

Question: What about the viability, T/C (second compound 0.1 µM, first compound 10 µM) of the same molecule?
Answer: 1.85%

Question: What about the viability, T/C (second compound 0.316 µM, first compound 0.0316 µM) of the same molecule?
Answer: 11.6%

Question: And the viability, T/C (second compound 0.316 µM, first compound 0.1 µM)?
Answer: 6.64%

Question: What about the viability, T/C (second compound 0.316 µM, first compound 0.316 µM) of the same molecule?
Answer: 4.53%

Question: What about the viability, T/C (second compound 0.316 µM, first compound 1 µM) of the same molecule?
Answer: 3.35%

Question: And the viability, T/C (second compound 0.316 µM, first compound 3.16 µM)?
Answer: 2.23%

Question: What about the viability, T/C (second compound 0.316 µM, first compound 10 µM) of the same molecule?
Answer: 2.18%

Question: What about the viability, T/C (second compound 1 µM, first compound 0.0316 µM) of the same molecule?
Answer: 1.03%

Question: What about the viability, T/C (second compound 1 µM, first compound 0.1 µM) of the same molecule?
Answer: 0.46%

Question: And the viability, T/C (second compound 1 µM, first compound 0.316 µM)?
Answer: 1.22%

Question: And the viability, T/C (second compound 1 µM, first compound 1 µM)?
Answer: 0.37%

Question: And the viability, T/C (second compound 1 µM, first compound 3.16 µM)?
Answer: 0.88%

Question: What about the viability, T/C (second compound 1 µM, first compound 10 µM) of the same molecule?
Answer: 1.48%

Question: And the viability, T/C (second compound 3.16 µM, first compound 0.0316 µM)?
Answer: 0.37%

Question: And the viability, T/C (second compound 3.16 µM, first compound 0.1 µM)?
Answer: 0.29%

Question: What about the viability, T/C (second compound 3.16 µM, first compound 0.316 µM) of the same molecule?
Answer: 0.92%

Question: And the viability, T/C (second compound 3.16 µM, first compound 1 µM)?
Answer: 0.2%

Question: And the viability, T/C (second compound 3.16 µM, first compound 3.16 µM)?
Answer: 0.33%

Question: What about the viability, T/C (second compound 3.16 µM, first compound 10 µM) of the same molecule?
Answer: 0.29%

Question: What about the viability, T/C (second compound 10 µM, first compound 0.0316 µM) of the same molecule?
Answer: 0.21%

Question: And the viability, T/C (second compound 10 µM, first compound 0.1 µM)?
Answer: 0.61%

Question: And the viability, T/C (second compound 10 µM, first compound 0.316 µM)?
Answer: 0.42%

Question: What about the viability, T/C (second compound 10 µM, first compound 1 µM) of the same molecule?
Answer: 0.38%

Question: What about the viability, T/C (second compound 10 µM, first compound 3.16 µM) of the same molecule?
Answer: 0.23%

Question: And the viability, T/C (second compound 10 µM, first compound 10 µM)?
Answer: 0.54%
